Laboratory results from US20050053611A1, “Pharmaceutical kit comprising anti-human seminal plasma protein single chain antibody/human carboxypeptidase fusion protein and prodrug” (priority 2001, published 2005).

How the values were obtained:
PC-3m tumor = conditions: for histopathologic examination of tumors: after 5 weeks of treatment; for average survival time / lifespan: from beginning of treatment till natural death
Procedure: Tumor Model: BALB/C nude mice aged 4-6 weeks and weight at 16-20 g were provided by the Experimental Animal Center of the Fourth Military Medical University (Xi'an, China) and bred in a sterile isolator. They were derma-inoculated with 0.1 ml of PC-3m suspension (1×10^7 cells). The drugs were administrated when the volume of tumor was approximately 0.5 cm^3.
1) Groups and treatments. 56 nude mice carrying tumors were randomized into 7 groups: {circle over (1)}Control group, intravenously administered with 0.5 ml of saline; {circle over (2)}Treatment Group I, intravenously administered with MTX (5 mg/kg); {circle over (3)}Treatment Group II, intravenously administered with MTX-α-Phe (5.32 mg/kg) {circle over (4)}Treatment Group III, intravenously administered with 0.5 ml of anti-γ-SmMcAb-CP-A; {circle over (5)}Treatment Group IV, intravenously administered with 0.5 ml of the fusion protein; {circle over (6)}Treatment Group V, intravenously administered with 0.5 ml of γ-SmMcAb-CP-A first and MTX-α-Phe (5.32 mg/kg) 72 h later (ADEPT-1); {circle over (7)}Treatment Group VI, intravenously administered with 0.5 ml of the fusion protein first and MTX-α-Phe (5.32 mg/kg) 72 h later (ADEPT-2).
Tumor-inhibition rate: The major diameter and minor diameter of the tumor were measured every week after the administration of drugs. The mass of tumor (m=½×major diameter×minor diameter^2) and tumor-inhibition rate (TIR) was thus calculated according the following formula. [formula]
Cell cycle of tumor cells is calculated by the formula: tc=[lg(1+G)/lg(m2/m1)]×t (G: a component of the tumor growth group; m2, m1: tumor mass of a given component of the group observed at different time points; t: interval between observations).
Survival time of the nude mice refers to the period from the beginning of the treatment till natural death.
Histopathologic observation includes gross specimen examination and microscopic examination. Samples of tumor and organs were fixed with 100 ml/L formalin. Pathologic section was stained […] underwent microscopy observation.

[1] = system: PC cells (PC-3 and PC-3m); type: cell-based; conditions: MTT, 48 h; for lethal / cytotoxic effect to PC cells: lethal curves
Procedure: 1) MTT assay: PC-3 and PC-3m cells were seeded separately to a 96-well plate at 1×10^4 cells/ml/well. MTX, MTX-α-Phe, MTX-α-Phe+CP-A, MTX-α-Phe+fusion proteins and MTX-α-Arg, MTX-α-Arg+fusion proteins at different concentrations were also added into those wells. 3 parallel wells were set for each concentration. The cells were incubated in a CO2 incubator for 48 h. 20 μl of a solution of thiazole blue in PBS (5 mg/ml) was added to each well and incubated at 37° C. for 4 h. The culture medium and free thiazole blue were discarded and 0.1 ml of dimethylsulfoxide was added to each well. The absorbance at 405 nm was measured and mortality rate was calculated.

[2] = system: PC cells (PC-3 and PC-3m); assay: cell cycle kinetic analysis by flow cytometry; type: cell-based, human
Procedure: 3) Kinetic effects of the fusion protein/prodrug on the growth cycle of PC cells: PC-3 and PC-3m cells were added to several 10 ml culture flasks (10^6/ml). MTX, MTX-α-Arg, MTX-α-Phe+CP-A, MTX-α-Phe+fusion protein at different concentrations were added to the flasks, respectively. The cells were collected at 6 h, 16 h and 24 h after the addition of the tested drugs and washed twice with cold saline and then fixed with 950 ml/L ethanol. The cells were stained by routine DNA staining method. Flow cytometry was employed in the kinetic analysis (FACS Profile II; Laser rate: 15 mW; Green light filter: 488 nm).

[3] = system: PC cells (PC-3 and PC-3m); assay: colony formation assay (soft agar culture); type: cell-based, human; conditions: 2 weeks
Procedure: 2) Colony formation assay. The colony formation assay was performed using soft agar culture method. 9 different groups were included in the assay: {circle over (1)}MTX+PC cell, {circle over (2)}MTX-α-Phe+PC cell, {circle over (3)}fusion protein+PC cell, {circle over (4)}MTX-α-Phe+CP-A+PC cell, {circle over (5)}MTX-α-Phe+fusion protein+PC cell, {circle over (6)}MTX-α-Arg+PC cell, {circle over (7)}MTX-α-Arg+CP-A+PC cell, {circle over (8)}MTX-α-Arg+fusion protein+PC cell and {circle over (9)}control group (PC cell only). All the tested prodrugs were used in three different concentrations, i.e. each of MTX, MTX-α-Phe and MTX-α-Arg was used at 0.4, 4, and 40 μg/ml. CP-A was used in a volume of 10 μl (2.5 mU/μl) and fusion protein was used in a volume of 10 μl (1 mg/ml). The density of PC cell was 200/well. The plate was incubated in a CO2 incubator at 37° C. for 2 weeks. After incubation, PC cells were fixed by a mixture of acetic acid and ethanol (1:3) for 2 h. Then microscopy was employed to calculate the percentage of colony formation.

| Compound | tumor size compared with control (PC-3m tumor; P>0.05) | histopathologic examination of tumors (PC-3m tumor) | average survival time / lifespan (PC-3m tumor) | tumor cell growth cycle (PC-3m tumor; mouse, in vivo) | lethal / cytotoxic effect to PC cells [1] | IC50 ([1]; PC cells, read-out: IC50 of the prodrug) | kinetic change of cell cycle [2] | colony-formation rate [3] | volume of tumors (PC-3m tumor; by the 6th week) | growth of tumors (PC-3m tumor; from the 2nd week on) | living quality of mice (PC-3m tumor; mouse, in vivo) | whole blood count (PC-3m tumor; mouse, in vivo) | cell proliferation index [2] | colony formation ([3]; P<0.001) |
| --- | --- | --- | --- | --- | --- | --- | --- | --- | --- | --- | --- | --- | --- | --- |
| CN(Cc1cnc2nc(N)nc(N)c2n1)c1ccc(C(=O)N[C@@H](CCC(=O)O)C(=O)N[C@@H](Cc2ccccc2)C(=O)O)cc1 [MTX-α-Phe, methotrexate-α-phenylalanine] | small compared with that of the control but the difference was not significant | characteristics typical of adenocarcinoma | 31 ± 12.2 days | 1.7±0.2 | no lethal effect | 72 mM | did not show any significant kinetic change | 88% |  |  |  |  |  |  |
| CN(Cc1cnc2nc(N)nc(N)c2n1)c1ccc(C(=O)NC(CCC(=O)O)C(=O)NC(CCCNC(=N)N)C(=O)O)cc1 (stereo not drawn) [MTX-α-Arg] |  |  |  |  | no lethal effect |  |  | 91% |  |  |  |  |  |  |
| CN(Cc1cnc2nc(N)nc(N)c2n1)c1ccc(C(=O)N[C@@H](CCC(=O)O)C(=O)O)cc1 [MTX, Methotrexate] |  | a large area of necrosis in the tumors | 67 ± 13.8 days | 2.5±0.2 |  |  |  |  | significantly smaller than that in other groups | decreased | poor living quality | significantly lower than that of the ADEPT groups | decreased significantly | none of these groups had any colony formed |
